From patent US10759766B2, “Certain chemical entities, compositions, and methods” (NeuPharma, Inc., priority 2011, dated 2020)

Legend:
[1] = target: BRAF (Homo sapiens (Human), UniProt P15056); test: Z′-LYTE kinase inhibition assay (Invitrogen), BRAF; format: biochemical; conditions: 1 μM compound, Z′-LYTE method; read-out: % inhibition at 1 μM against BRAF
Experimental: Inhibitory activities Inhibitory activities of compounds against BRAF, and BRAF V600E were measured by Invitrogen using Z′-LYTE® Method as briefly described in the following. 4× Test compounds are dissolved in 1% DMSO. […] ATP solutions are diluted to a 4×ATP working concentration in Kinase Buffer (50 mM HEPES pH 7.5, 0.01% BRIJ-35, 10 mM MgCl2, 1 mM EGTA). Reaction started by 30-second shaking of mixture consisting of 2.5 μL 4× test compound, […] and 2.5 μL 4×ATP Solution on Bar-coded Corning, low volume NBS, black 384-well plate (Corning Cat. #3676). Then the mixture was incubated for 60-minute at room temperature for the kinase reaction, followed by addition of 5 μL of a 1:1024 dilution of development reagent A and 30-second plate shake. The mixture was then incubated for another 60-minute at room temperature for development reaction. Fluorescence was read by plate reader. IC50 was calculated by plotting the concentration of compound vs the percentage of inhibition in treated wells using GraphPad Prism 5.

[2] = target: BRAF V600E (Homo sapiens (Human), UniProt P15056, V600E); test: Z′-LYTE kinase inhibition assay (Invitrogen), BRAF V600E; format: biochemical; conditions: Z′-LYTE method; for inhibition at 1 µM: 1 μM compound, read-out: % inhibition at 1 μM against BRAF V600E; for IC50: read-out: IC50 against BRAF V600E
Procedure, shortened: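 FRET-based Z′-LYTE peptide phosphorylation format in 50 mM HEPES pH 7.5, 0.01% BRIJ-35, 10 mM MgCl2, 1 mM EGTA with ATP. Kinase reaction 60 min at room temperature, then protease development step 60 min at room temperature before fluorescence read. IC50 from compound concentration versus percent inhibition.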

[3] = target: KDR (VEGFR2) (Homo sapiens (Human), UniProt P35968); test: Z′-LYTE kinase inhibition assay (Invitrogen), KDR; format: biochemical; conditions: Z′-LYTE method; for inhibition at 1 µM: 1 μM compound, read-out: % inhibition at 1 μM against KDR; for IC50: read-out: IC50 against KDR
Procedure, shortened: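 Z′-LYTE FRET assay: 10 μL reactions with 0.5–11.7 ng KDR and 2 μM Tyr 01 peptide in 50 mM HEPES pH 7.5, 10 mM MgCl2, 1 mM EGTA, 0.01% BRIJ-35, 1 h at room temperature. Development Reagent B (1:256) added for 60 min, fluorescence read; IC50 from concentration–inhibition curves.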

[4] = tested on: A375 cells; test: Inhibition of cancer cell growth, MTT assay, A375; format: cell-based; conditions: Homo sapiens, A-375, 72 h exposure
Procedure, shortened: (§1)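 IC50 derived from percent growth inhibition versus concentration, tested in triplicate. Growth inhibition came from MTT read at 570 nm after 72 h drug exposure, relative to viable cells at dosing. Cells (about 4000/well, RPMI 1640 + 10% FBS) adhered 24 h before treatment; final DMSO 1%.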

[5] = tested on: A549 cells; test: Inhibition of cancer cell growth, MTT assay, A549; format: cell-based; conditions: Homo sapiens, A549, 72 h exposure
Procedure, shortened: as §1

Chain of BRAF V600E (P15056 whole entry V600E): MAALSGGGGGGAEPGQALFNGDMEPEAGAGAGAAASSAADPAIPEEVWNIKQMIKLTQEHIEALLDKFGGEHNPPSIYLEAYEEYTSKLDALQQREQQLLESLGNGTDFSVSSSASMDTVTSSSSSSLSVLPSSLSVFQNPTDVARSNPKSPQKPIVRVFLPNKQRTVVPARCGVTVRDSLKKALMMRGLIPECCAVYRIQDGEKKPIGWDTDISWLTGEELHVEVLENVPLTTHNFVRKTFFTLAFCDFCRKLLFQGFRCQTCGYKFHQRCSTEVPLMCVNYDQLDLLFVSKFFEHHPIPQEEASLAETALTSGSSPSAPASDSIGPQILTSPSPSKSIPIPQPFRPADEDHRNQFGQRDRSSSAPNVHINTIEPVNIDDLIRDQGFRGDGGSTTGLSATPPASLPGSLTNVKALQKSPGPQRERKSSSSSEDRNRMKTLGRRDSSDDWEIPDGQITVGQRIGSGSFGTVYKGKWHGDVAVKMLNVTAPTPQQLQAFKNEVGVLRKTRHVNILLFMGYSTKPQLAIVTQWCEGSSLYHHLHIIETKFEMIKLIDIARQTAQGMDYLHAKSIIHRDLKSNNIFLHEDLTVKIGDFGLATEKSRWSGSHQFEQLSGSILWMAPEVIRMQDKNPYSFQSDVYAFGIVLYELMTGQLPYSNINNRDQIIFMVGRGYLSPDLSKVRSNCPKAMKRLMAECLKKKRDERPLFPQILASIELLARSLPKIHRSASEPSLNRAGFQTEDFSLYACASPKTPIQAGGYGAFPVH
Chain of KDR (VEGFR2) (P35968 20-1356): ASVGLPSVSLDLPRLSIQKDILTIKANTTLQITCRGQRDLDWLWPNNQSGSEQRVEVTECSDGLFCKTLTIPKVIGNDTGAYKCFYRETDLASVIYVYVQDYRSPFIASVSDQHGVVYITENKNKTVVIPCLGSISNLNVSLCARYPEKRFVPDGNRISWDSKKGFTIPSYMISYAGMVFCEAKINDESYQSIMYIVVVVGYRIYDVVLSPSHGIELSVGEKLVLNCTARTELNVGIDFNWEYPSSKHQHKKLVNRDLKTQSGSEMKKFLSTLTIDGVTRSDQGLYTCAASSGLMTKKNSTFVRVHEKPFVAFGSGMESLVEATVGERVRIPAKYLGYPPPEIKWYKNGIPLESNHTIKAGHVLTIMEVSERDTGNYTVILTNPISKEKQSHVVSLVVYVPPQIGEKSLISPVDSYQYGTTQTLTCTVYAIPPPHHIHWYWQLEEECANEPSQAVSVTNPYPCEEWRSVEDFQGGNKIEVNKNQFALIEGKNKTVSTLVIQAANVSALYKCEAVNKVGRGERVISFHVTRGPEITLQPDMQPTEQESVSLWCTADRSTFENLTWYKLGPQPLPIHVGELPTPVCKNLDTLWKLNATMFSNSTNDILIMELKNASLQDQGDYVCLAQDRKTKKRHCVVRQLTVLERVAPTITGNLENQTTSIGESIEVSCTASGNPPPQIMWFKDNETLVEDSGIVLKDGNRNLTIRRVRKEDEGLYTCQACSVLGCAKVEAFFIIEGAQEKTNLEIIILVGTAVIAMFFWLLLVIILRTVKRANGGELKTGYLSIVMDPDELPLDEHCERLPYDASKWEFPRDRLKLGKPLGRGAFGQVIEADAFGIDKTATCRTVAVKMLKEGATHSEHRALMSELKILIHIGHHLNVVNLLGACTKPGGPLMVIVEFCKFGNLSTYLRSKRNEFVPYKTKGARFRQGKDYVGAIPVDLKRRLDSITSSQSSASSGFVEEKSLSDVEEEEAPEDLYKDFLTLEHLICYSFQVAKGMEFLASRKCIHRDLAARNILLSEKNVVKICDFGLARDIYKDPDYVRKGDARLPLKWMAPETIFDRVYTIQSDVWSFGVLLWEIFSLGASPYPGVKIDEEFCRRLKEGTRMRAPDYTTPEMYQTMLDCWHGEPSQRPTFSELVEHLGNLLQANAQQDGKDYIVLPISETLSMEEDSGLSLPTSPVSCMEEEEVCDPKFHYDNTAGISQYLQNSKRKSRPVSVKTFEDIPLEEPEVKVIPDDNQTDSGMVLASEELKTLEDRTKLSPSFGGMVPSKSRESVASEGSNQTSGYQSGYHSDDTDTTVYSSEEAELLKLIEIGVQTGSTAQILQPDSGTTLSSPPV
Chain of BRAF (P15056 whole entry): as the sequence (P15056 whole entry V600E) above, with E600V counted along it

SMILES	inhibition at 1 µM [1]	inhibition at 1 µM [2]	IC50 [2]	inhibition at 1 µM [3]	IC50 [3]	IC50 [4]	IC50 [5]
O=C(Nc1cc(F)cc(C(=O)c2ccc3ncc(N4CCOCC4)nc3c2)c1)Nc1cccc(C(F)(F)F)c1 [Compound C038, 1-(3-fluoro-5-(3-morpholinoquinoxaline-6-carbonyl)phenyl)-3-(3-(trifluoromethyl)phenyl)urea]	70 to 89%	> 89%	< 100 nM	70 to 89%	< 100 nM	< 1000 nM	< 2000 nM
O=C(Nc1ccc(Cl)c(C(F)(F)F)c1)Nc1cc(F)c(F)c(C(=O)c2ccc3nccnc3c2)c1F [Compound C007, 1-(4-chloro-3-(trifluoromethyl)phenyl)-3-(2,4,5-trifluoro-3-(quinoxaline-6-carbonyl)phenyl)urea]	< 70%	< 70%	–	< 70%	–	1000 to 5000 nM	2000 to 5000 nM
O=C(Nc1ccc(F)c(C(=O)c2ccc3ncc(N4CCOCC4)nc3c2)c1)c1cccc(C(F)(F)F)c1 [Compound C141, N-(4-fluoro-3-(3-morpholinoquinoxaline-6-carbonyl)phenyl)-3-(trifluoromethyl)benzamide]	< 70%	> 89%	< 100 nM	> 89%	< 100 nM	< 1000 nM	< 2000 nM
O=C(Nc1cc(F)c(F)c(C(=O)c2ccc3nccnc3c2)c1F)c1cccc(F)c1 [Compound C108, 3-fluoro-N-(2,4,5-trifluoro-3-(quinoxaline-6-carbonyl)phenyl)benzamide]	< 70%	70 to 89%	–	< 70%	–	> 5000 nM	2000 to 5000 nM
O=C(Nc1cccc(C(F)(F)F)c1)Nc1ccc(F)c(C(=O)c2ccc3nccnc3c2)c1 [Compound C014, 1-(4-fluoro-3-(quinoxaline-6-carbonyl)phenyl)-3-(3-(trifluoromethyl)phenyl)urea]	< 70%	> 89%	< 100 nM	70 to 89%	< 100 nM	< 1000 nM	< 2000 nM
O=C(Nc1cccc(C(=O)c2ccc3ncc(N4CCCC4)nc3c2)c1)c1cccc(F)c1 [Compound C121, 3-fluoro-N-(3-(3-(pyrrolidin-1-yl)quinoxaline-6-carbonyl)phenyl)benzamide]	< 70%	70 to 89%	> 100 nM	70 to 89%	< 100 nM	< 1000 nM	< 2000 nM
O=C(Nc1cccc(C(=O)c2ccc3ncc(N4CCCC4)nc3c2)c1)Nc1cccc(C(F)(F)F)c1 [Compound C020, 1-(3-(3-(pyrrolidin-1-yl)quinoxaline-6-carbonyl)phenyl)-3-(3-(trifluoromethyl)phenyl)urea]	70 to 89%	> 89%	–	> 89%	–	1000 to 5000 nM	> 5000 nM
O=C(Nc1cccc(C(=O)c2ccc3ncc(N4CCOCC4)nc3c2)c1)Nc1ccc(Cl)c(C(F)(F)F)c1 [Compound C018, 1-(4-chloro-3-(trifluoromethyl)phenyl)-3-(3-(3-morpholinoquinoxaline-6-carbonyl)phenyl)urea]	70 to 89%	> 89%	< 100 nM	> 89%	< 100 nM	< 1000 nM	< 2000 nM
COc1cnc2ccc(C(=O)c3cc(NC(=O)Nc4ccc(F)c(F)c4)ccc3F)cc2n1 [Compound C082, 1-(3,4-difluorophenyl)-3-(4-fluoro-3-(3-methoxyquinoxaline-6-carbonyl)phenyl)urea]	< 70%	> 89%	–	70 to 89%	–	1000 to 5000 nM	2000 to 5000 nM
